According to patent US11208435B2, “Verticilide enantiomer and methods of inhibiting cardiac ryanodine receptor-mediated intracellular calcium release” (Vanderbilt University, priority 2017, dated 2021):
pIC50: −log10 of the molar value.

Legend:
RyR2 [1] = molecular target: T1, RyR2 (Mus musculus, UniProt E9Q401); test: Ca2+ sparks in permeabilized wild-type myocytes; format: cell-based; conditions: 3 μM ent-1, 25 μM flecainide, 50 μM tetracaine
T1 construct: spontaneous openings of intracellular RyR2; endogenous in cells; host or cells: ventricular cardiomyocytes isolated from Casq2-/- mice (A1, A6) or wild-type mice (A5)
Description: (§1) (FIG. 2A) Representative confocal line scans of Ca2+ sparks in the absence (DMSO) or presence of 25 μM nat-1 or ent-1 in permeabilized Casq2−/− cardiomyocytes. (FIG. 2B) Ca2+ spark frequency in Casq2−/− cells treated with 25 μM nat-1, 7, 8, and their respective enantiomers. (FIG. 2C) Comparison of [3H]ryanodine binding to SR isolated from porcine longissimus dorsi (RyR1) or cardiac ventricle (RyR2) in the presence of 50 μM nat-1, ent-1, or tetracaine (tet). (FIG. 2D) Dose response curves for ent-1 and tet inhibition of [3H]ryanodine binding to RyR2. (FIG. 2E) Representative Ca2+ sparks from permeabilized wild-type cardiomyocytes treated with 3 μM ent-1, 25 μM flecainide, or 50 μM tetracaine. Graph indicates amplitude of Ca2+ release of the selected representative sparks over time. (FIG. 2F) Percent change in spark frequency, amplitude, mass, leak, and SR Ca2+ content relative to vehicle (DMSO), obtained from wild-type myocytes. SR Ca2+ content was measured as the Ca2+ transient amplitude elicited by application of 10 mM caffeine (n≥5 cells per group). Data are presented as mean±SEM. N≥30 cells per group for A, B, and F. N=4 replicates for each concentration tested in C and D. *p<0.05 vs DMSO, **p<0.01 vs DMSO, ***p<0.001 vs DMSO by 1-way ANOVA with Tukey's post-hoc test (B) or t-test (C, D, and F).
(§2) Skeletal and cardiac SR were incubated with 50 μM nat-1, ent-1, and tetracaine for three hours. Nat-1 increased RyR1 activity, but had no effect on RyR2 (FIG. 2C). Conversely, ent-1 inhibited RyR2, but had no effect on RyR1. The well-established RyR inhibitor, tetracaine, inhibited both isoforms. Ent-1 was selected to generate full dose response curves for both cardiac and skeletal SR. Ent-1 inhibited RyR2 in a concentration-dependent manner with an apparent IC50 of approximately 0.1 μM and maximal inhibition of approximately 20% (FIG. 2D), but had no effect on RyR1 up to 50 μM (Figure S2). […] To further characterize the Ca^2+ release inhibition by ent-1, the present inventors applied a lower concentration (3 μM) to wild type mouse myocytes and compared results to two other classical Ca^2+ release inhibitors, flecainide and tetracaine (representative line scans and sparks are shown in FIG. 2E).

spontaneous Ca^2+ waves = conditions: 10 μM; cited from earlier work
RyR1 = molecular target: T2, RyR1 (Sus scrofa, UniProt P16960); test: [3H]ryanodine binding to skeletal muscle SR; set-up: species or system porcine; conditions: 50 μM, three hours
T2 construct: SR isolated from porcine longissimus dorsi (RyR1); from tissue; host or cells: porcine longissimus dorsi sarcoplasmic reticulum
Description: as §1, with “F). […]” for “F).”

insect RyR = conditions: read-out: IC50, binding insect RyR; cited from earlier work
RyR2 [2] = molecular target: T3, RyR2 (Sus scrofa, UniProt A0A5G2R1W3); test: [3H]ryanodine binding to cardiac SR; set-up: species or system porcine; conditions: for [3H]ryanodine binding (RyR2 activity): 50 μM, three hours
T3 construct: cardiac ventricle (RyR2); from tissue; host or cells: porcine cardiac ventricle sarcoplasmic reticulum
Description: as §1, §2

[3] = [Ca2+]free by Fluo-4 fluorescence under spark assay conditions; format: physicochemical; conditions: 25 μM, 10 minutes in internal spark solution
Description: Ventricular mouse myocytes were isolated, permeabilized with saponin to enable equivalent access of the compounds to the SR membrane, and incubated with DMSO or 25 μM nat- and ent-1, 7, 8. RyR2 activity was measured in the form of Ca^2+ sparks, which are elementary Ca^2+ release events generated by spontaneous openings of intracellular RyR2 Ca^2+ release channels. […] Cardiac SR Ca^2+ release is sensitive to the Ca^2+ concentration present at the cytosolic face of RyR2. To confirm that [Ca^2+]free was not altered by any of the compounds, Fluo-4 fluorescence was measured under spark assay conditions. The internal spark solution was incubated with DMSO or 25 μM nat-1, 7, 8, and their respective enantiomers for 10 minutes and [Ca^2+]free was calculated from a set of Ca^2+ standards.

RyR2 [4] = molecular target: T1, RyR2; test: Ca2+ sparks in saponin-permeabilized Casq2-/- ventricular myocytes; format: cell-based; conditions: 25 μM, permeabilized Casq2-/- cardiomyocytes, vs DMSO
Description: (FIG. 2A) Representative confocal line scans of Ca2+ sparks in the absence (DMSO) or presence of 25 μM nat-1 or ent-1 in permeabilized Casq2−/− cardiomyocytes. (FIG. 2B) Ca2+ spark frequency in Casq2−/− cells treated with 25 μM nat-1, 7, 8, and their respective enantiomers. (FIG. 2C) Comparison of [3H]ryanodine binding to SR isolated from porcine longissimus dorsi (RyR1) or cardiac ventricle (RyR2) in the presence of 50 μM nat-1, ent-1, or tetracaine (tet). (FIG. 2D) Dose response curves for ent-1 and tet inhibition of [3H]ryanodine binding to RyR2. (FIG. 2E) Representative Ca2+ sparks from permeabilized wild-type cardiomyocytes treated with 3 μM ent-1, 25 μM flecainide, or 50 μM tetracaine. […] SR Ca2+ content was measured as the Ca2+ transient amplitude elicited by application of 10 mM caffeine (n≥5 cells per group). […]
Ventricular mouse myocytes were isolated, permeabilized with saponin to enable equivalent access of the compounds to the SR membrane, and incubated with DMSO or 25 μM nat- and ent-1, 7, 8. RyR2 activity was measured in the form of Ca^2+ sparks, which are elementary Ca^2+ release events generated by spontaneous openings of intracellular RyR2 Ca^2+ release channels. […] To confirm that [Ca^2+]free was not altered by any of the compounds, Fluo-4 fluorescence was measured under spark assay conditions. […]

Casq2^−/− mice = test: Catecholamine-induced ventricular arrhythmia, ECG in Casq2-/- mice; format: in vivo, mouse; conditions: 30 mg/kg i.p.
Description: (FIG. 3A) Isolated cardiomyocytes were field stimulated at 3 Hz for 20 seconds followed by 40 seconds recording of SCR events (†). Application of 10 mM caffeine (caff) was used to measure SR Ca2+ content. (FIG. 3B) SCR frequency following cessation of pacing. N=63, 27, 31, 63, 30, and 27 cells for […] ent-1, respectively. **p<0.01, ***p<0.001 vs DMSO by t-test. (FIG. 3C) Representative heart rate traces in Casq2−/− mice treated with DMSO or ent-1. Isoproterenol (3.0 mg/kg i.p.) was injected at 0 s. Rhythm strips show arrhythmia features. Ectopic beats (†) produce a variable HR in the traces. (FIG. 3D) Quantification of catecholamine-induced ectopic beats by surface electrocardiogram in Casq2−/− mice injected intraperitoneally with 30 mg/kg (drug/body weight) nat-1 or ent-1 or DMSO of equivalent volume 30 minutes prior to recordings. ***p<0.001 vs DMSO or ###p<0.001 vs nat-1 by Mann-Whitney U-test. (FIG. 3E) Incidence of ventricular tachycardia (VT). p=0.0305 for ent-1 vs DMSO (*) or ent-1 vs nat-1 (#) by Fisher's exact test. N=22 mice per group (D and E). Data in B and D presented as mean±SEM.
To determine whether ent-1 inhibition of Ca^2+ release in cardiomyocytes in vitro translates into activity against ventricular arrhythmia in vivo, Casq2^−/− mice were injected intraperitoneally with 30 mg/kg nat-1, ent-1, or DMSO of equivalent volume. […]

T3 sequence (A0A5G2R1W3 20-4900): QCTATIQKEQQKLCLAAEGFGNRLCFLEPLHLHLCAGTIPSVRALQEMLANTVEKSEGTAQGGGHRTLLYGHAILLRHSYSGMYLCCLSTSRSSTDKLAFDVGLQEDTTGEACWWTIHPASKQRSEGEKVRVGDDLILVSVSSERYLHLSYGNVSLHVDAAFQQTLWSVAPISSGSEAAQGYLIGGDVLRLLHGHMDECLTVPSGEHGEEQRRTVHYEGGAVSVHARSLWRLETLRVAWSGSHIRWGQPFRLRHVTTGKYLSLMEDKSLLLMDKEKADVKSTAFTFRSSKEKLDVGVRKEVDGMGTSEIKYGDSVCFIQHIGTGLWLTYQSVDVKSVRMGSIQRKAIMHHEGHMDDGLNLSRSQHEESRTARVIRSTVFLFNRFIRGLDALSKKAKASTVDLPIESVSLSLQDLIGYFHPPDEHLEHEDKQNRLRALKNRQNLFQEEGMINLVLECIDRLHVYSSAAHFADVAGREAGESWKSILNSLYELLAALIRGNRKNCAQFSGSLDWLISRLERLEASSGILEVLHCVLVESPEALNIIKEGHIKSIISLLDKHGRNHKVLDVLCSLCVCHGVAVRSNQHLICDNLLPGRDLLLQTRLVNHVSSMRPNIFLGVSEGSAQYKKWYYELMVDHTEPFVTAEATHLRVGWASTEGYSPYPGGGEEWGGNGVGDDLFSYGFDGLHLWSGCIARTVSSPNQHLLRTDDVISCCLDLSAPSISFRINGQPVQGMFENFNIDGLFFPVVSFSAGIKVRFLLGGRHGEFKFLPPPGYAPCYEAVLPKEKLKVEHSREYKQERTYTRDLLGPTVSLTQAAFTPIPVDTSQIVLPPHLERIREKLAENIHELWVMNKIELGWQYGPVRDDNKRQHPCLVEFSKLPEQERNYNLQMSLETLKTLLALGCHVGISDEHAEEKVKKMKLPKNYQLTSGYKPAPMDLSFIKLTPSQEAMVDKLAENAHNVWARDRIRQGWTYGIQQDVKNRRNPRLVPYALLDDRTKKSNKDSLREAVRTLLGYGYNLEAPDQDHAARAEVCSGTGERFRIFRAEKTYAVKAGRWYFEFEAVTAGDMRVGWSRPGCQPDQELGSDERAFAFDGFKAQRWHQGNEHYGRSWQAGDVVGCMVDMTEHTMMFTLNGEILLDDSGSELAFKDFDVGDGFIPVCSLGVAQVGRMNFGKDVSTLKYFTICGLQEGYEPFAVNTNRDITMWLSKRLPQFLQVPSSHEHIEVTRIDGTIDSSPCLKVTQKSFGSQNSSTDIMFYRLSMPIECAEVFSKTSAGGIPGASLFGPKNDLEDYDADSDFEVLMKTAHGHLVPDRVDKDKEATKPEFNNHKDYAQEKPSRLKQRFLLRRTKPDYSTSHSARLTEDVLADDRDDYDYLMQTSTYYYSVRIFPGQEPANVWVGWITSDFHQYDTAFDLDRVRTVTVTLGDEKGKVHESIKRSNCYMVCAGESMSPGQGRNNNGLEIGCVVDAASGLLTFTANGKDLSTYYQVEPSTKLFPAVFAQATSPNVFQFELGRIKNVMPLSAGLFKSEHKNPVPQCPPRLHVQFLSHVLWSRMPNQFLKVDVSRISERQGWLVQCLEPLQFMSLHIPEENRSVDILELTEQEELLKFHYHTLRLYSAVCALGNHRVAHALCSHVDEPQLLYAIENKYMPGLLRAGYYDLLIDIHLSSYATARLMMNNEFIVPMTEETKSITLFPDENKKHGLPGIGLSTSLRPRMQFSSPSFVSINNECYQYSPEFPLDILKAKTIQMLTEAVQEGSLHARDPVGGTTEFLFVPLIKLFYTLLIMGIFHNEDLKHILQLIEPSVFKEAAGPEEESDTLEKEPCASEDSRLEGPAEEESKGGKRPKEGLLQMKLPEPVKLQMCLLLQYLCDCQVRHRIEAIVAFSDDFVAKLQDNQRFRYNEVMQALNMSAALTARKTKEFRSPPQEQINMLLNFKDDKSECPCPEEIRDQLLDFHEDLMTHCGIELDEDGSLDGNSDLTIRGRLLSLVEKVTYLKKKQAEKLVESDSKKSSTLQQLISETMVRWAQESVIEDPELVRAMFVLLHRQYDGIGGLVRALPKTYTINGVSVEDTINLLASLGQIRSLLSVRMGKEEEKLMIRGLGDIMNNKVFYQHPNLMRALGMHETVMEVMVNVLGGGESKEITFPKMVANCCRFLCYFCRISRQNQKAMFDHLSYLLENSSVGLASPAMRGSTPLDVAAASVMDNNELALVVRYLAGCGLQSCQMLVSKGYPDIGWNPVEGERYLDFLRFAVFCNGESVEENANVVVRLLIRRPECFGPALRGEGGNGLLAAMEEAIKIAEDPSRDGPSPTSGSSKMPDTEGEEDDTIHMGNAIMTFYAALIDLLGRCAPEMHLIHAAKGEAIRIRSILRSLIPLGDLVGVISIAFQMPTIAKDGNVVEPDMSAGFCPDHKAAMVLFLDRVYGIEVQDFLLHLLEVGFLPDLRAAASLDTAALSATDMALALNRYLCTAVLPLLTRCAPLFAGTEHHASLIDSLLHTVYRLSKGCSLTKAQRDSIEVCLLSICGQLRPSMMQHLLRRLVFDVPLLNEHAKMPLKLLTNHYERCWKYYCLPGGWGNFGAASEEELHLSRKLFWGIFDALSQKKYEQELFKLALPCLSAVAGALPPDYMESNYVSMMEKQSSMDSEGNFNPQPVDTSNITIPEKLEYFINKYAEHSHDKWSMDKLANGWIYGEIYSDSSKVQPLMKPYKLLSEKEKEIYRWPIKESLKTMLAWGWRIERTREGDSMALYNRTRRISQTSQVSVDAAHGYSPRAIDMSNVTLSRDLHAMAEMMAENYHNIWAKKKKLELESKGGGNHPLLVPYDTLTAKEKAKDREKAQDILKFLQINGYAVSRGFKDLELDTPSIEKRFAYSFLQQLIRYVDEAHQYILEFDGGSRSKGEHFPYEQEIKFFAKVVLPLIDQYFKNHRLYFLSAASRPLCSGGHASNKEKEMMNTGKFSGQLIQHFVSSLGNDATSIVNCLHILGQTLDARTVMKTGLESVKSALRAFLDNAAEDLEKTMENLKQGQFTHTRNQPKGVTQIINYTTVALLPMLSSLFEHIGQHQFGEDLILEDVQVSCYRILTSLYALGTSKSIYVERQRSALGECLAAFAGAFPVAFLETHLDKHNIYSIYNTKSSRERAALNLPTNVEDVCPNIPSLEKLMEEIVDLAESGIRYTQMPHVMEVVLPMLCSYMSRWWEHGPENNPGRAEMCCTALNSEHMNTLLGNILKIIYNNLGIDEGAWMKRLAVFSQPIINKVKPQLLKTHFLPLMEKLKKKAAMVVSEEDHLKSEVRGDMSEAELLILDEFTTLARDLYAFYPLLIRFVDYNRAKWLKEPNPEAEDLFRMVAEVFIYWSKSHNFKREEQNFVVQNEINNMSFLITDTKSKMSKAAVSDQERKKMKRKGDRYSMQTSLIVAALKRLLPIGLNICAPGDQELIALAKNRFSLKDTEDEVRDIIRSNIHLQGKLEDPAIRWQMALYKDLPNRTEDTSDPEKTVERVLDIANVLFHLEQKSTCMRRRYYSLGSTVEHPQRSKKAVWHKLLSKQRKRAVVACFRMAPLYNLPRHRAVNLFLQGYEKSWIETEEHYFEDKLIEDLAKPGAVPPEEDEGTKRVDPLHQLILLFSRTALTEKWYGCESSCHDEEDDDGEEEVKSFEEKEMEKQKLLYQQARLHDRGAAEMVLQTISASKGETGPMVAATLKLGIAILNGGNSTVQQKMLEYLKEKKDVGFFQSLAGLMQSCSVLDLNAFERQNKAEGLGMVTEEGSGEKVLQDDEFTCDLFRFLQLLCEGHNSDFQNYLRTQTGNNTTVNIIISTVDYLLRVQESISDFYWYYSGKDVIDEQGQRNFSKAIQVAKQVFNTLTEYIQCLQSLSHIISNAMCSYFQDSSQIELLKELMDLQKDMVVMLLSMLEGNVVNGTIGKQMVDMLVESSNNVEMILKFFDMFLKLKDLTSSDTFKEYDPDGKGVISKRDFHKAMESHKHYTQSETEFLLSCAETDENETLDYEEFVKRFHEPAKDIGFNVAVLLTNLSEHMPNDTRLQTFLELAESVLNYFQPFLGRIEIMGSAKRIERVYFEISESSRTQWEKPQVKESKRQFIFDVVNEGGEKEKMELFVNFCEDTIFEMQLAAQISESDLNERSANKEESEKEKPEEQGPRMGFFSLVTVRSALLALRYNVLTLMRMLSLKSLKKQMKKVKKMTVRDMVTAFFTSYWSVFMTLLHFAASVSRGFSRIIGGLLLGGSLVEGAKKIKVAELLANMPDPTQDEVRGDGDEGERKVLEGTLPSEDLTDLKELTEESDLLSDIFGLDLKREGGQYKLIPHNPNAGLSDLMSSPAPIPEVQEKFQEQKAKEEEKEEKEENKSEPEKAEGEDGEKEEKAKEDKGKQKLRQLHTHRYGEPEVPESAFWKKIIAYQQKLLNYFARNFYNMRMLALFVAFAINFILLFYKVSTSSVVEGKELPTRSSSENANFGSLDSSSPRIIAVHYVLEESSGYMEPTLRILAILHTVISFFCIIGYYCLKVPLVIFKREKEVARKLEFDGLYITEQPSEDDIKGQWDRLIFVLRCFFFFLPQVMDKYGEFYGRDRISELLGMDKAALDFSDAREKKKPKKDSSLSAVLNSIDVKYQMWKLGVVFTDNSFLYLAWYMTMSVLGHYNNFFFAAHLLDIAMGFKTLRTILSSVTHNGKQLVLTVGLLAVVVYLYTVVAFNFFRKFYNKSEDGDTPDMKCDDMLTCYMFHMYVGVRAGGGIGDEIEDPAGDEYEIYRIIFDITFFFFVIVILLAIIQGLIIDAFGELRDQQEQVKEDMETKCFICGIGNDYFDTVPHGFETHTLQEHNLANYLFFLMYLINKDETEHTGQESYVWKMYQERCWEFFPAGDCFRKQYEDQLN

Compound	Ca2+ spark frequency (RyR2 [1])	Ca2+ spark mass (RyR2 [1])	Ca2+ spark mediated SR Ca2+ leak (RyR2 [1])	[3H]ryanodine binding (RyR1 activity) (RyR1)	[3H]ryanodine binding (RyR2 activity) (RyR2 [2])	also measured
O=C(NCC1CCCCN1)c1cc(OCC(F)(F)F)ccc1OCC(F)(F)F (stereo not drawn) [flecainide]	paradoxical increase	reduces the amount of Ca^2+ released during a spark	leak-neutral blocker	–	–	effectiveness in suppressing spontaneous Ca2+ waves (spontaneous Ca^2+ waves): 30%
CCCCCC1OC(=O)C(C)N(C)C(=O)C(CCCCC)OC(=O)C(C)N(C)C(=O)C(CCCCC)OC(=O)C(C)N(C)C(=O)C(CCCCC)OC(=O)C(C)N(C)C1=O (single isomer, unassigned; (-)) [nat-1, (−)-Verticilide]	–	–	–	increased	no effect	pIC50 (insect RyR): 5.38; binding to Ca2+ ([Ca2+]free) [3]: did not bind to Ca^2+; Ca2+ spark frequency (RyR2 [4]): no effect
CCCCC[C@@H]1OC(=O)[C@@H](C)N(C)C(=O)[C@H](CCCCC)OC(=O)[C@@H](C)N(C)C(=O)[C@H](CCCCC)OC(=O)[C@@H](C)N(C)C(=O)[C@H](CCCCC)OC(=O)[C@@H](C)N(C)C1=O (single isomer, unassigned) [ent-1, ent-(+)-verticilide]	–	–	–	–	–	ECG PR interval (Casq2^−/− mice; index of Ca2+ channel block): no significant effect; ECG QRS duration (Casq2^−/− mice; index of Na+ channel block): no significant effect; pIC50 (RyR2 [2]): ~7.00; maximal inhibition of [3H]ryanodine binding to RyR2 (RyR2 [2]; dose response, cardiac SR): approximately 20%
CCCCNc1ccc(C(=O)OCCN(C)C)cc1 [tetracaine]	depresses	did not reduce	only modestly reduces	inhibited	inhibited	–
